Test results taken from US4719217A, “Certain N-azabicycloalkyl-benzamides useful in the treatment of impaired gastro-intestinal motility or emesis” (Beecham Group p.l.c., priority 1985, dated 1988).

Tests used:
[1] = system: Intraluminal pressure in the Heidenhain pouch; assay: Intraluminal pressure in the Heidenhain pouch of the dog (increase in amplitude of rhythmical contractions); type: in vivo; conditions: Canis lupus familiaris, iv, fasted lightly restrained conscious, increase in amplitude of rhythmical contractions for at least 4-5 minutes
Procedure: 2. Intraluminal pressure in the Heidenhain pouch of the dog
Pressure changes were recorded via a saline filled catheter inserted, with airtight closure, into the fistula of a chronic Heidenhain pouch of the previously fasted and lightly restrained conscious dog. The catheter was connected to a physiological pressure transducer and pressure changes recorded on a hot wire pen recorder. Compounds were administered when the motility was in a phase of relatively low activity and the dose range determined which induced an increase in the amplitude of rhythmical contractions for a period of at least 4-5 minutes.

Intragastric pressure = Intragastric pressure in the rat (gastric motility, fasted conscious restrained rats); type: in vivo; conditions: sc, 40 min, s.c., intragastric pressure waves, 40 minute period following dosing
Procedure: 1. Intragastric pressure in the rat
Intragastric pressure changes were recorded from fasted conscious and restrained rats using a saline filled catheter inserted into the lumen of the stomach via a permanent gastric fistula. The catheter was connected to a physiological pressure transducer and pressure changes recorded on a hot wire pen recorder. An index of activity was obtained by measuring the average height of pressure waves during 10 minute periods. Values for 4 such periods were obtained during assessment of spontaneous activity prior to dosing and for the 40 minute period following dosing with compound or vehicle. The Student's "t" test was applied to the mean values obtained for activity prior to and post treatment. Groups of 10 animals were used for each treatment.

Work on `CCN1CC2CCC(C1)C2NC(=O)c1cc(Cl)c(N)cc1OC` (racemic) [Example E5, (±)(8β)-4-Amino-5-chloro-2-methoxy-N-(3-ethyl-3-azabicyclo[3,2,1]octan-8-yl)benzamide] yielded an ED50 [1] of 0.01 mg/kg.
With `COc1cc(N)c(Cl)cc1C(=O)NC1C2CCC1CN(C)C2` (racemic) [Example E1, (±) (8β)-4-Amino-5-chloro-2-methoxy-N-(3-methyl-3-azabicyclo[3,2,1]octan-8-yl)benzamide] the ED50 [1] was 0.05 mg/kg.
Compound `COc1cc(N)c(Cl)cc1C(=O)NC1C2CCC1CN(C)C2` (racemic) [Example E2, (±) (8α)-4-Amino-5-chloro-2-methoxy-N-(3-methyl-3azabicyclo[3,2,1]octan-8-yl)benzamide] has an ED50 (Intragastric pressure) of 0.5 mg/kg.
